Assays:
[1] = Chitosan-controlled release of zinc through dialysis tubing, dialysate zinc measured by ICP-OES; assay type: physicochemical
Description: (§1) The chitosan-controlled release of zinc was investigated. 0.1% solutions of chitosan were prepared. Zinc acetate was added to each of these solutions to provide a zinc ion concentration of 100 ppm or 200 ppm. The pH of the solutions was adjusted to 2, 5 or 7. Each solution was left at room temperature for 72 hours while gently mixing to allow for complete chitosan dissolution. Solutions containing zinc alone acted as controls for the experiment.
(§2) Each solution was subsequently transferred to dialysis tubing and placed in a jar containing deionized water. Stirring was carried out continuously throughout the duration of dialysis. Evaporative loss was minimized by placing a sealing wrap over the jar. A sample of the dialysate was removed at regular intervals and the zinc ion concentration was measured by inductively coupled plasma optical emission spectrometry (ICP-OES).

[2] = Amount of zinc bound to chitosan after 1 hour of dialysis; assay type: physicochemical
Description: as §1, §2
The amount of zinc bound to chitosan after 1 hour of dialysis at pH 2, 5 and 7 was also determined After 1 hour of dialysis, the amount of zinc that had been released through the dialysis tubing, in the presence and absence of chitosan, was measured as described above. The amount of zinc released in the presence of chitosan was subtracted from the amount of zinc released in the absence of chitosan to determine the amount of zinc bound to chitosan.

CC(=O)[O-].CC(=O)[O-].[Zn+2] [Zinc, Zinc acetate]
average rate of zinc release per hour ([1]; 100 ppm Zn acetate, pH 2): 0.54 mg/h | average rate of zinc release per hour ([1]; 100 ppm Zn acetate, pH 5): 1.38 mg/h | average rate of zinc release per hour ([1]; 100 ppm Zn acetate, pH 7): 0.85 mg/h | Amount of Zn++ released ([1]; 100 ppm zinc ion, pH 2, 0.00 hrs): 0 mg | Amount of Zn++ released ([1]; 100 ppm zinc ion, pH 2, 0.33 hrs): 0.25 ± 0.00 mg | Amount of Zn++ released ([1]; 100 ppm zinc ion, pH 2, 0.67 hrs): 0.42 ± 0.01 mg | Amount of Zn++ released ([1]; 100 ppm zinc ion, pH 2, 1.00 hrs): 0.52 ± 0.01 mg | Amount of Zn++ released ([1]; 100 ppm zinc ion, pH 2, 1.33 hrs): 0.75 ± 0.01 mg | Amount of Zn++ released ([1]; 100 ppm zinc ion, pH 2, 1.67 hrs): 0.90 ± 0.02 mg | Amount of Zn++ released ([1]; 100 ppm zinc ion, pH 2, 2.00 hrs): 1.01 ± 0.02 mg | Amount of Zn++ released ([1]; 100 ppm zinc ion, pH 2, 2.50 hrs): 1.40 ± 0.01 mg | Amount of Zn++ released ([1]; 100 ppm zinc ion, pH 2, 3.00 hrs): 1.66 ± 0.02 mg | Amount of Zn++ released ([1]; 100 ppm zinc ion, pH 5, 0.00 hrs): 0 mg | Amount of Zn++ released ([1]; 100 ppm zinc ion, pH 5, 0.33 hrs): 0.57 ± 0.01 mg | Amount of Zn++ released ([1]; 100 ppm zinc ion, pH 5, 0.67 hrs): 1.15 ± 0.02 mg | Amount of Zn++ released ([1]; 100 ppm zinc ion, pH 5, 1.00 hrs): 1.68 ± 0.02 mg | Amount of Zn++ released ([1]; 100 ppm zinc ion, pH 5, 1.33 hrs): 2.36 ± 0.07 mg | Amount of Zn++ released ([1]; 100 ppm zinc ion, pH 5, 1.67 hrs): 2.86 ± 0.07 mg | Amount of Zn++ released ([1]; 100 ppm zinc ion, pH 5, 2.00 hrs): 3.14 ± 0.01 mg | Amount of Zn++ released ([1]; 100 ppm zinc ion, pH 5, 2.50 hrs): 3.69 ± 0.05 mg | Amount of Zn++ released ([1]; 100 ppm zinc ion, pH 5, 3.00 hrs): 4.00 ± 0.00 mg | Amount of Zn++ released ([1]; 100 ppm zinc ion, pH 7, 0.00 hrs): 0 mg | Amount of Zn++ released ([1]; 100 ppm zinc ion, pH 7, 0.33 hrs): 0.30 ± 0.00 mg | Amount of Zn++ released ([1]; 100 ppm zinc ion, pH 7, 0.67 hrs): 0.71 ± 0.15 mg | Amount of Zn++ released ([1]; 100 ppm zinc ion, pH 7, 1.00 hrs): 0.82 ± 0.00 mg | Amount of Zn++ released ([1]; 100 ppm zinc ion, pH 7, 1.33 hrs): 1.11 ± 0.00 mg | Amount of Zn++ released ([1]; 100 ppm zinc ion, pH 7, 1.67 hrs): 1.40 ± 0.01 mg | Amount of Zn++ released ([1]; 100 ppm zinc ion, pH 7, 2.00 hrs): 1.78 ± 0.25 mg | average rate of zinc release per hour ([1]; 200 ppm Zn acetate, pH 2): 1.58 mg/h | average rate of zinc release per hour ([1]; 200 ppm Zn acetate, pH 5): 2.07 mg/h | average rate of zinc release per hour ([1]; 200 ppm Zn acetate, pH 7): 1.47 mg/h | Amount of Zn++ released ([1]; 200 ppm zinc ion, pH 2, 0.00 hrs): 0 mg | Amount of Zn++ released ([1]; 200 ppm zinc ion, pH 2, 0.33 hrs): 0.52 ± 0.00 mg | Amount of Zn++ released ([1]; 200 ppm zinc ion, pH 2, 0.67 hrs): 1.07 ± 0.00 mg | Amount of Zn++ released ([1]; 200 ppm zinc ion, pH 2, 1.00 hrs): 1.77 ± 0.07 mg | Amount of Zn++ released ([1]; 200 ppm zinc ion, pH 2, 1.33 hrs): 2.36 ± 0.01 mg | Amount of Zn++ released ([1]; 200 ppm zinc ion, pH 2, 1.67 hrs): 2.90 ± 0.01 mg | Amount of Zn++ released ([1]; 200 ppm zinc ion, pH 2, 2.00 hrs): 3.40 ± 0.05 mg | Amount of Zn++ released ([1]; 200 ppm zinc ion, pH 2, 2.50 hrs): 4.09 ± 0.01 mg | Amount of Zn++ released ([1]; 200 ppm zinc ion, pH 2, 3.00 hrs): 4.59 ± 0.00 mg | Amount of Zn++ released ([1]; 200 ppm zinc ion, pH 5, 0.00 hrs): 0 mg | Amount of Zn++ released ([1]; 200 ppm zinc ion, pH 5, 0.33 hrs): 0.99 ± 0.00 mg | Amount of Zn++ released ([1]; 200 ppm zinc ion, pH 5, 0.67 hrs): 1.91 ± 0.02 mg | Amount of Zn++ released ([1]; 200 ppm zinc ion, pH 5, 1.00 hrs): 2.73 ± 0.00 mg | Amount of Zn++ released ([1]; 200 ppm zinc ion, pH 5, 1.33 hrs): 3.61 ± 0.00 mg | Amount of Zn++ released ([1]; 200 ppm zinc ion, pH 5, 1.67 hrs): 4.25 ± 0.01 mg | Amount of Zn++ released ([1]; 200 ppm zinc ion, pH 5, 2.00 hrs): 4.85 ± 0.02 mg | Amount of Zn++ released ([1]; 200 ppm zinc ion, pH 5, 2.50 hrs): 5.59 ± 0.01 mg | Amount of Zn++ released ([1]; 200 ppm zinc ion, pH 5, 3.00 hrs): 6.13 ± 0.03 mg | Amount of Zn++ released ([1]; 200 ppm zinc ion, pH 7, 0.00 hrs): 0 mg | Amount of Zn++ released ([1]; 200 ppm zinc ion, pH 7, 0.33 hrs): 0.630 ± 0.00 mg | Amount of Zn++ released ([1]; 200 ppm zinc ion, pH 7, 0.67 hrs): 1.21 ± 0.01 mg | Amount of Zn++ released ([1]; 200 ppm zinc ion, pH 7, 1.00 hrs): 1.76 ± 0.01 mg | Amount of Zn++ released ([1]; 200 ppm zinc ion, pH 7, 1.33 hrs): 2.36 ± 0.02 mg | Amount of Zn++ released ([1]; 200 ppm zinc ion, pH 7, 1.67 hrs): 2.88 ± 0.02 mg | Amount of Zn++ released ([1]; 200 ppm zinc ion, pH 7, 2.00 hrs): 3.25 ± 0.04 mg | Zn++ released through the dialysis tubing ([2]; 100 ppm pH 2, after 1 hour of dialysis): 0.57 mg | Zn++ released through the dialysis tubing ([2]; 100 ppm pH 5, after 1 hour of dialysis): 1.62 mg | Zn++ released through the dialysis tubing ([2]; 100 ppm pH 7, after 1 hour of dialysis): 0.87 mg | Zn++ released through the dialysis tubing ([2]; 200 ppm pH 2, after 1 hour of dialysis): 1.68 mg | Zn++ released through the dialysis tubing ([2]; 200 ppm pH 5, after 1 hour of dialysis): 2.54 mg | Zn++ released through the dialysis tubing ([2]; 200 ppm pH 7, after 1 hour of dialysis): 1.68 mg

— patent publication US20150328250A1, “Animal Food Composition and Method” (HILL'S PET NUTRITION, INC., priority 2012, published 2015)
